What was measured:
HCT-116 [1] = assay: Antiproliferative activity against human HCT-116 cells incubated for 24 hrs by MTT assay; type: functional, cell-based; conditions: HCT-116, 24 h
A549 [2] = assay: Antiproliferative activity against human A549 cells incubated for 24 hrs by MTT assay; type: functional, cell-based; conditions: A549, 24 h
HCT-116 [3] = assay: Antiproliferative activity against human HCT-116 cells incubated for 72 hrs by MTT assay; type: functional, cell-based; conditions: HCT-116, 72 h
HCT-116 [4] = assay: Downregulation of phosphorylated GSK-3beta at Ser9 residue expression in human HCT-116 cells after 24 hrs by Western blotting analysis; type: functional, cell-based; conditions: dose 0.5-2 µM
HCT-116 [5] = assay: Induction of NO production in human HCT-116 cells incubated for 6 hrs by Griess reagent based assay; type: functional, cell-based; conditions: dose 1-10 µM
[6] = Selectivity index, ratio of IC50 for human CCD-841CoN cells to IC50 for human HCT-116 cells; type: toxicity; conditions: CCD-841CoN cells and HCT-116 cells, read-out: Ratio IC50
A549 [7] = assay: Antiproliferative activity against human A549 cells incubated for 24 to 72 hrs by MTT assay; type: functional, cell-based; conditions: dose 0.1-100 µM, time 24-72 hrs
HCT-116 [8] = assay: Antiproliferative activity against human HCT-116 cells incubated for 24 to 72 hrs by MTT assay; type: functional, cell-based; conditions: dose 0.1-100 µM, time 24-72 hrs
HCT-116 [9] = assay: Downregulation of beta-catenin expression in human HCT-116 cells cytosol after 24 hrs by Western blotting analysis; type: functional, subcellular; conditions: dose 0.5-2 µM
[10] = Cytotoxicity against human CCD-841CoN cells incubated for 24 hrs by MTT assay; type: toxicity, cell-based
A549 [11] = assay: Antiproliferative activity against human A549 cells incubated for 72 hrs by MTT assay; type: functional, cell-based; conditions: A549, 72 h
A549 [12] = assay: Antiproliferative activity against human A549 cells at 0.1 to 100 uM by MTT assay; type: functional, cell-based; conditions: dose 0.1-100 µM, time 24-72 hrs, TDE = time-dependent effect
[13] = Cytotoxicity against human CCD-841CoN cells incubated for 72 hrs by MTT assay; type: toxicity, cell-based
HCT-116 [14] = assay: Downregulation of beta-catenin expression in human HCT-116 cells nucleus after 24 hrs by Western blotting analysis; type: functional, subcellular; conditions: dose 0.5-2 µM
HCT-116 [15] = assay: Antiproliferative activity against human HCT-116 cells at 0.1 to 100 uM by MTT assay; type: functional, cell-based; conditions: dose 0.1-100 µM, time 24-72 hrs, TDE = time-dependent effect

SMILES	IC50 (HCT-116 [1])	IC50 (A549 [2])	IC50 (HCT-116 [3])	Activity (HCT-116 [4])	Activity (HCT-116 [5])	selectivity ratio [6]	Activity (A549 [7])	Activity (HCT-116 [8])	Activity (HCT-116 [9])	IC50 at 24 h [10]	IC50 (A549 [11])	Activity (A549 [12])	IC50 at 72 h [13]	Activity (HCT-116 [14])	Activity (HCT-116 [15])
CCN(CC)/[N+]([O-])=N/OCOC(=O)CCCCOc1c(OC)cc(/C=C/C(=O)N2CCC=C(Cl)C2=O)cc1OC	0.9 µM	0.8 µM	0.6 µM	Dose-Dependent Effect	Dose-Dependent Effect	> 10	Dose-Dependent Effect	Dose-Dependent Effect	Dose-Dependent Effect	11.3 µM	0.6 µM	Tde	6.1 µM	Dose-Dependent Effect	Tde
COc1cc(/C=C/C(=O)N2CCC=C(Cl)C2=O)cc(OC)c1OC	11.4 µM	10.2 µM	6.2 µM	–	–	–	–	–	–	–	–	–	–	–	–
COc1cc(/C=C/C(=O)NOC/N=[N+](\[O-])N2CCOCC2)cc(OC)c1OCCCCC(=O)OCO/N=[N+](\[O-])N1CCOCC1	35.6 µM	18.4 µM	28 µM	–	Dose-Dependent Effect	–	Dose-Dependent Effect	Dose-Dependent Effect	–	–	10.6 µM	Tde	–	–	Tde
CCN(CC)OC(=O)CCCCOc1c(OC)cc(/C=C/C(=O)N2CCC=C(Cl)C2=O)cc1OC	6.3 µM	–	2.8 µM	–	–	–	–	–	–	–	–	–	–	–	–
CCN(CC)/[N+]([O-])=N/CONC(=O)/C=C/c1cc(OC)c(OCCCCC(=O)OCO/N=[N+](\[O-])N(CC)CC)c(OC)c1	5.4 µM	5.7 µM	3.9 µM	–	Dose-Dependent Effect	–	Dose-Dependent Effect	Dose-Dependent Effect	–	–	3.4 µM	Tde	–	–	Tde
O=c1[nH]cc(F)c(=O)[nH]1 [FLUOROURACIL]	29.6 µM	–	19.7 µM	–	–	–	–	–	–	–	24.2 µM	–	–	–	–
COc1cc(/C=C/C(=O)N2CCC=C(Cl)C2=O)cc(OC)c1OCCCCC(=O)OCO/N=[N+](\[O-])N1CCOCC1	1.1 µM	1.1 µM	0.7 µM	–	Dose-Dependent Effect	–	Dose-Dependent Effect	Dose-Dependent Effect	–	–	0.7 µM	Tde	–	–	Tde
COc1cc(/C=C/C(=O)N2CCC=CC2=O)cc(OC)c1OC [PIPLARTINE]	13.3 µM	13.2 µM	8.6 µM	–	–	–	Dose-Dependent Effect	Dose-Dependent Effect	–	–	7.2 µM	Tde	–	–	Tde

Reference: ChEMBL document CHEMBL5584298, “Discovery of Cytotoxic Nitric Oxide-Releasing Piperlongumine Derivatives Targeting Wnt/β-Catenin in Colon Cancer Cells” (J Nat Prod, 2024)
